# Results published in patent US8541380B2, “C-aryl glucoside SGLT2 inhibitors and pharmaceutical compositions comprising same” (Green Cross Corporation, priority 2009, dated 2013).
# Target: human SGLT2 (Homo sapiens (Human), UniProt P31639)
# Experiment: hSGLT2 inhibitory activity, sodium-dependent 14C-AMG glucose transport assay in CHO cells expressing hSGLT2
# Format: cell-based
# Details: 14C-AMG uptake, CHO cells expressing hSGLT2, 37° C. for 2 h
# Excerpt: Human SGLT2 (hSGLT2) gene was amplified by PCR from cDNA-Human Adult Normal Tissue Kidney (Invitrogen, Carlsbad, Calif.). The hSGLT2 sequence was cloned into pcDNA3.1(+) for mammalian expression and were stably transfected into Chinese hamster ovary (CHO) cells. SGLT2-expressing clones were selected based on resistance to G418 antibiotic (Geneticin®, Invitrogen, Carlsbad, Calif.) and activity in the ^14C-α-methyl-D-glucopyranoside (^14C-AMG) uptake assay.
# For sodium-dependent glucose transport assay, cells expressing hSGLT2 were seeded into a 96-well culture plate at a density of 5×10^4 cells/well in RPMI medium 1640 containing 10% fetal bovine serum. The cells were used 1 day after plating. They were incubated in pretreatment buffer (10 mM HEPES, 5 mM Tris, 140 mM choline chloride, 2 mM KCl, 1 mM CaCl2, and 1 mM MgCl2, pH 7.4) at 37° C. for 10 min. They were then incubated in uptake buffer (10 mM HEPES, 5 mM Tris, 140 mM NaCl, 2 mM KCl, 1 mM CaCl2, 1 mM MgCl2, and 1 mM ^14C-nonlabeled AMG pH 7.4) containing ^14C-labeled (8 uM) and inhibitor or dimethyl sulfoxide (DMSO) vehicle at 37° C. for 2 h. Cells were washed twice with washing buffer (pretreatment buffer containing 10 mM AMG at room temperature) and then the radioactivity was measured using a liquid scintillation counter.
# Chain of human SGLT2 (P31639 whole entry): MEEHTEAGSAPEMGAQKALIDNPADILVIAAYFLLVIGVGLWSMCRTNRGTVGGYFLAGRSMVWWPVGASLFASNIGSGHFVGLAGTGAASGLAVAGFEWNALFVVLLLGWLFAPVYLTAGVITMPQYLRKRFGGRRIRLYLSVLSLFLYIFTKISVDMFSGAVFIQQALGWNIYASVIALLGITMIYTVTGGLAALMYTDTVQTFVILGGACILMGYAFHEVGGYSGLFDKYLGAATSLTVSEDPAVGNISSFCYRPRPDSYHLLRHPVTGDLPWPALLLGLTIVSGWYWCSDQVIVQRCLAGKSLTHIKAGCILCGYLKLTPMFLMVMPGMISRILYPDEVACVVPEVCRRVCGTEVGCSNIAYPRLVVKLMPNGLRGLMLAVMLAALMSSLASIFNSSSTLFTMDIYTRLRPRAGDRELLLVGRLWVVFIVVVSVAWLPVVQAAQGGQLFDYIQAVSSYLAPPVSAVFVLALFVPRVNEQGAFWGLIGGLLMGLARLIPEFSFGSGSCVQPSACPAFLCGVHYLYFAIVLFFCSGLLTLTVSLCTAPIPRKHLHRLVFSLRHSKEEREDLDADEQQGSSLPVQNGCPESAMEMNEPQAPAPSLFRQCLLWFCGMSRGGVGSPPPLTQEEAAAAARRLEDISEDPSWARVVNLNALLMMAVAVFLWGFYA
row,Compound,IC50
1,"OC[C@H]1O[C@@H](c2ccc(Cl)c(Cc3nnc(-c4cc5ccccc5o4)s3)c2)[C@H](O)[C@@H](O)[C@@H]1O [Example 30, (2S,3R,4R,5S,6R)-2-(3-((5-(Benzofuran-2-yl)-1,3,4-thiadiazol-2-yl)methyl)-4-chlorophenyl)-6-(hydroxymethyl)-tetrahydro-2H-pyran-3,4,5-triol]",249 nM
2,"Cc1ccc(Cc2cc([C@@H]3O[C@H](CO)[C@@H](O)[C@H](O)[C@H]3O)ccc2Cl)nn1 [Example 73, (2S,3R,4R,5S,6R)-2-(4-Chloro-3-((6-methylpyridazin-3-yl)methyl)phenyl)-6-(hydroxymethyl)-tetrahydro-2H-pyran-3,4,5-triol]",293 nM
3,"OC[C@H]1O[C@@H](c2ccc(Cl)c(Cc3nnc(-c4ccnnc4)s3)c2)[C@H](O)[C@@H](O)[C@@H]1O [Example 43, (2S,3R,4R,5S,6R)-2-(4-Chloro-3-((5-(pyridazin-4-yl)-1,3,4-thiadiazol-2-yl)methyl)phenyl)-6-(hydroxymethyl)-tetrahydro-2H-pyran-3,4,5-triol]",190 nM
4,"OC[C@H]1O[C@@H](c2ccc(Cl)c(Cc3nnc4ccccc4n3)c2)[C@H](O)[C@@H](O)[C@@H]1O [Example 88, (2S,3R,4R,5S,6R)-2-(3-(Benzo[e][1,2,4]triazin-3-ylmethyl)-4-chlorophenyl)-6-(hydroxymethyl)tetrahydro-2H-pyran-3,4,5-triol]",491 nM
5,"OC[C@H]1O[C@@H](c2ccc(Cl)c(Cc3nnc(-c4sccc4Cl)s3)c2)[C@H](O)[C@@H](O)[C@@H]1O [Example 9, (2S,3R,4R,5S,6R)-2-(4-Chloro-3-((5-(3-chlorothiophen-2-yl)-1,3,4-thiadiazol-2-yl)methyl)phenyl)-6-(hydroxymethyl)tetrahydro-2H-pyran-3,4,5-triol]",712 nM
6,"CCCCCc1nnc(Cc2cc([C@@H]3O[C@H](CO)[C@@H](O)[C@H](O)[C@H]3O)ccc2Cl)s1 [Example 33, (2S,3R,4R,5S,6R)-2-(4-Chloro-3-((5-pentyl-1,3,4-thiadiazol-2-yl)methyl)phenyl)-6-(hydroxymethyl)-tetrahydro-2H-pyran-3,4,5-triol]",353 nM
7,"Cc1ccsc1-c1nnc(Cc2cc([C@@H]3O[C@H](CO)[C@@H](O)[C@H](O)[C@H]3O)ccc2Cl)s1 [Example 7, (2S,3R,4R,5S,6R)-2-(4-chloro-3-((5-(3-methylthiophen-2-yl)-1,3,4-thiadiazol-2-yl)methyl)phenyl)-6-(hydroxymethyl)-tetrahydro-2H-pyran-3,4,5-triol]",762 nM
8,"CC(C)Cc1ccc(Cc2cc([C@@H]3O[C@H](CO)[C@@H](O)[C@H](O)[C@H]3O)ccc2Cl)nn1 [Example 77, (2S,3R,4R,5S,6R)-2-(4-Chloro-3-((6-isobutylpyridazin-3-yl)methyl)phenyl)-6-(hydroxymethyl)-tetrahydro-2H-pyran-3,4,5-triol]",811 nM
9,"COc1nnc(Cc2cc([C@@H]3O[C@H](CO)[C@@H](O)[C@H](O)[C@H]3O)ccc2Cl)s1 [Example 41, (2S,3R,4R,5S,6R)-2-(4-Chloro-3-((5-methoxy-1,3,4-thiadiazol-2-yl)methyl)phenyl)-6-(hydroxymethyl)-tetrahydro-2H-pyran-3,4,5-triol]",146 nM
10,"OC[C@H]1O[C@@H](c2ccc(Cl)c(Cc3nncc(-c4ccccc4)n3)c2)[C@H](O)[C@@H](O)[C@@H]1O [Example 90, (2S,3R,4R,5S,6R)-2-(4-Chloro-3-((5-phenyl-1,2,4-triazin-3-yl)methyl)phenyl)-6-(hydroxymethyl)tetrahydro-2H-pyran-3,4,5-triol]",402 nM
11,"OC[C@H]1O[C@@H](c2ccc(Cl)c(Cc3nnc(C4CCCC4)s3)c2)[C@H](O)[C@@H](O)[C@@H]1O [Example 19, (2S,3R,4R,5S,6R)-2-(4-Chloro-3-((5-cyclopentyl-1,3,4-thiadiazol-2-yl)methyl)phenyl)-6-(hydroxymethyl)tetrahydro-2H-pyran-3,4,5-triol]",445 nM
12,"Cc1ccc2nc(Cc3cc([C@@H]4O[C@H](CO)[C@@H](O)[C@H](O)[C@H]4O)ccc3Cl)nnc2c1 [Example 87, (2S,3R,4R,5S,6R)-2-(4-Chloro-3-((7-methylbenzo[e][1,2,4]triazin-3-yl)methyl)phenyl)-6-(hydroxymethyl)tetrahydro-2H-pyran-3,4,5-triol]",532 nM
13,"CCCc1nnc(Cc2cc([C@@H]3O[C@H](CO)[C@@H](O)[C@H](O)[C@H]3O)ccc2Cl)s1 [Example 31, (2S,3R,4R,5S,6R)-2-(4-Chloro-3-((5-propyl-1,3,4-thiadiazol-2-yl)methyl)phenyl)-6-(hydroxymethyl)-tetrahydro-2H-pyran-3,4,5-triol]",214 nM

# Now those with a lower IC50, led by results:
row,IC50,Compound
1,126 nM,"OC[C@H]1O[C@@H](c2ccc(Cl)c(Cc3nnc(-c4ccc(Cl)cc4)s3)c2)[C@H](O)[C@@H](O)[C@@H]1O [Example 29, (2S,3R,4R,5S,6R)-2-(4-chloro-3-((5-(4-Chlorophenyl)-1,3,4-thiadiazol-2-yl)methyl)phenyl)-6-(hydroxymethyl)-tetrahydro-2H-pyran-3,4,5-triol]"
2,106 nM,"Cc1ccoc1-c1nnc(Cc2cc([C@@H]3O[C@H](CO)[C@@H](O)[C@H](O)[C@H]3O)ccc2Cl)s1 [Example 3, (2S,3R,4R,5S,6R)-2-(4-Chloro-3-((5-(3-methylfuran-2-yl)-1,3,4-thiadiazol-2-yl)methyl)phenyl)-6-(hydroxymethyl)-tetrahydro-2H-pyran-3,4,5-triol]"
3,103 nM,"Cc1ccc(-c2nnc(Cc3cc(C4O[C@H](CO)[C@@H](O)[C@H](O)[C@H]4O)ccc3Cl)s2)cc1 (stereo partly drawn) [Example 22, (3R,4R,5S,6R)-2-(4-chloro-3-((5-p-tolyl-1,3,4-thiadiazol-2-yl)methyl)phenyl)-6-(hydroxymethyl)-tetrahydro-2H-pyran-3,4,5-triol]"
4,88.9 nM,"OC[C@H]1O[C@@H](c2cc(Cc3nnc(-c4ccco4)s3)cc3ccccc23)[C@H](O)[C@@H](O)[C@@H]1O [Example 92, (2S,3R,4R,5S,6R)-2-(3-((5-(Furan-2-yl)-1,3,4-thiadiazol-2-yl)methyl)naphthalene-1-yl)-6-(hydroxymethyl)-tetrahydro-2H-pyran-3,4,5-triol]"
5,50.5 nM,"CCCCCCCCOc1ccc(Cc2cc([C@@H]3O[C@H](CO)[C@@H](O)[C@H](O)[C@H]3O)ccc2Cl)nn1 [Example 56, (2S,3R,4R,5S,6R)-2-(4-Chloro-3-((6-(octyloxy)pyridazin-3-yl)methyl)phenyl)-6-(hydroxymethyl)-tetrahydro-2H-pyran-3,4,5-triol]"
6,30.3 nM,"OC[C@H]1O[C@@H](c2ccc(Cl)c(Cc3nnc(-c4ccccn4)s3)c2)[C@H](O)[C@@H](O)[C@@H]1O [Example 15, (2S,3R,4R,5S,6R)-2-(4-Chloro-3-((5-(pyridin-2-yl)-1,3,4-thiadiazol-2-yl)methyl)phenyl)-6-(hydroxymethyl)tetrahydro-2H-pyran-3,4,5-triol]"
7,24.9 nM,"CCCc1ccc(-c2nnc(Cc3cc(C4O[C@H](CO)[C@@H](O)[C@H](O)[C@H]4O)ccc3Cl)s2)cc1 (stereo partly drawn) [Example 23, (3R,4R,5S,6R)-2-(4-Chloro-3-((5-(4-propylphenyl)-1,3,4-thiadiazol-2-yl)methyl)phenyl)-6-(hydroxymethyl)-tetrahydro-2H-pyran-3,4,5-triol]"
8,17.7 nM,"OC[C@H]1O[C@@H](c2ccc(Cl)c(Cc3nnc(-c4ccoc4)s3)c2)[C@H](O)[C@@H](O)[C@@H]1O [Example 4, (2S,3R,4R,5S,6R)-2-(4-Chloro-3-((5-(furan-3-yl)-1,3,4-thiadiazol-2-yl)methyl)phenyl)-6-(hydroxymethyl)tetrahydro-2H-pyran-3,4,5-triol]"
9,17.6 nM,"OC[C@H]1O[C@@H](c2cc(Cc3nnc(-c4ccco4)s3)c(Cl)cc2Cl)[C@H](O)[C@@H](O)[C@@H]1O [Example 96, (2S,3R,4R,5S,6R)-2-(2,4-Dichloro-5-((5-(furan-2-yl)-1,3,4-thiadiazol-2-yl)methyl)phenyl)-6-(hydroxymethyl)-tetrahydro-2H-pyran-3,4,5-triol]"
10,17 nM,"CCCCCOc1ccc(Cc2cc([C@@H]3O[C@H](CO)[C@@H](O)[C@H](O)[C@H]3O)ccc2Cl)nn1 [Example 54, (2S,3R,4R,5S,6R)-2-(4-Chloro-3-((6-(pentyloxy)pyridazin-3-yl)methyl)phenyl)-6-(hydroxymethyl)-tetrahydro-2H-pyran-3,4,5-triol]"
11,14.4 nM,"OC[C@H]1O[C@@H](c2ccc(Cl)c(Cc3nnc(-c4cccs4)s3)c2)[C@H](O)[C@@H](O)[C@@H]1O [Example 5, (2S,3R,4R,5S,6R)-2-(4-Chloro-3-((5-(thiophen-2-yl)-1,3,4-thiadiazol-2-yl)methyl)phenyl)-6-(hydroxymethyl)tetrahydro-2H-pyran-3,4,5-triol]"
12,4.06 nM,"OC[C@H]1O[C@@H](c2ccc(Cl)c(Cc3nnc(-c4cnccn4)s3)c2)[C@H](O)[C@@H](O)[C@@H]1O [Example 42, (2S,3R,4R,5S,6R)-2-(4-Chloro-3-((5-(pyrazin-2-yl)-1,3,4-thiadiazol-2-yl)methyl)phenyl)-6-(hydroxymethyl)-tetrahydro-2H-pyran-3,4,5-triol]"
13,3.51 nM,"OC[C@H]1O[C@@H](c2ccc(Cl)c(Cc3nnc(-c4ccsc4)s3)c2)[C@H](O)[C@@H](O)[C@@H]1O [Example 10, (2S,3R,4R,5S,6R)-2-(4-Chloro-3-((5-(thiophen-3-yl)-1,3,4-thiadiazol-2-yl)methyl)phenyl)-6-(hydroxymethyl)tetrahydro-2H-pyran-3,4,5-triol]"
